Measured values as given in US20190010139A1 (priority 2015, published 2019).
Where two headings read alike, the source gives them in different places.

System: NL-RLuc virus
Experiment: Inhibition of HIV replication (NL-RLuc luciferase reporter virus in MT-2 cells)
Assay type: cell-based
Conditions: Human immunodeficiency virus 1, MT2, 120 h
Excerpt: Inhibition of HIV Replication:
A recombinant NL-RLuc proviral clone was constructed in which a section of the nef gene from NL4-3 was replaced with the Renilla Luciferase gene. This virus is fully infectious and can undergo multiple cycles of replication in cell culture. In addition, the luciferous reporter provides a simple and easy method for quantitating the extent of virus growth and consequently, the antiviral activity of test compounds. The plasmid pNLRLuc contains the proviral NL-Rluc DNA cloned into pUC 18 at the PvuII site. The NL-RLuc virus was prepared by transfection of 293T cells with the plasmid pNLRLuc. Transfections were performed using the LipofectAMINE PLUS kit from Invitrogen (Carlsbad, Calif.) according to the manufacturer and the virus generated was titered in MT-2 cells. For susceptibility analyses, the titrated virus was used to infect MT-2 cells in the presence of compound, and after 5 days of incubation, cells were processed and quantitated for virus growth by the amount of expressed luciferase. Assay media was RPMI 1640 supplemented with 10% heat inactivated fetal bovine serum (FBS), 100 units/ml penicillin G/100 units/ml streptomycin, 10 mM HEPES buffer pH 7.55 and 2 mM L-glutamine. The results from at least 2 experiments were used to calculate the EC50 values. Luciferase was quantitated using the Dual Luciferase kit from Promega (Madison, Wis.). Susceptibility of viruses to compounds was determined by incubation in the presence of serial dilutions of the compound. The 50% effective concentration (EC50) was calculated by using the exponential form of the median effect equation where (Fa)=1/[1+(ED50/drug conc.)^m](Johnson V A, Byington R T. Infectivity Assay. In Techniques in HIV Research. ed. Aldovini A, Walker B D. 71-76. New York: Stockton Press.1990). Activity equal to A refers to a compound having an EC50≤100 nM, while B and C denote compounds having an EC50 between 100 nM and 1 uM (B) or >1 uM (C).

SMILES	EC50 (read-out: Activity) [µM]	EC50 (read-out: EC50 μM) [µM]
Cc1nc(C)c([C@H](OC(C)(C)C)C(=O)O)c(N2CCC3(CCCC3)C2)c1-c1ccc(C(=O)NCc2ccccc2)cc1 [Example 15, (S)-2-(5-(4-(Benzylcarbamoyl)phenyl)-2,6-dimethyl-4-(2-azaspiro[4.4]nonan-2-yl)pyridin-3-yl)-2-(tert-butoxy)acetic acid]	< 0.1	
Cc1nc(C)c([C@H](OC(C)(C)C)C(=O)O)c(N2CCC3(CCC3)CC2)c1-c1ccc(C(=O)NCc2ccccc2)cc1 [Example 29, (S)-2-(5-(4-(Benzylcarbamoyl)phenyl)-2,6-dimethyl-4-(7-azaspiro[3.5]nonan-7-yl)pyridin-3-yl)-2-(tert-butoxy)acetic acid]	< 0.1	0.007
Cc1nc(CO)c(-c2ccc(OCCc3ccc(F)cc3)cc2)c(N2CCC3(CCC3)CC2)c1[C@H](OC(C)(C)C)C(=O)O [Example 38, (S)-2-(tert-Butoxy)-2-(5-(4-(4-fluorophenethoxy)phenyl)-6-(hydroxymethyl)-2-methyl-4-(7-azaspiro[3.5]nonan-7-yl)pyridin-3-yl)acetic acid]	< 0.1	
Cc1nc(C)c([C@H](OC(C)(C)C)C(=O)O)c(N2CC3CC3C2)c1-c1ccc(OCCc2ccc(F)cc2)cc1 (stereo partly drawn) [Example 6, (2S)-2-(4-(3-Azabicyclo[3.1.0]hexan-3-yl)-5-(4-(4-fluorophenethoxy)phenyl)-2,6-dimethylpyridin-3-yl)-2-(tert-butoxy)acetic acid]	0.1 to 1	
Cc1nc(C)c([C@H](OC(C)(C)C)C(=O)O)c(N2CC3CCC2C3)c1-c1ccc(C(=O)NCc2ccccc2)cc1 (stereo partly drawn) [Example 1, (S)-2-(5-(4-(Benzylcarbamoyl)phenyl)-4-(2-azabicyclo[2.2.1]heptan-2-yl)-2,6-dimethylpyridin-3-yl)-2-(tert-butoxy)acetic acid]	0.1 to 1	0.446
Cc1nc(C)c([C@H](OC(C)(C)C)C(=O)O)c(N2CCC3(CC2)CC3(F)F)c1-c1ccc(C(=O)NCc2ccccc2)cc1 [Example 71, (S)-2-(5-(4-(Benzylcarbamoyl)phenyl)-4-(1,1-difluoro-6-azaspiro[2.5]octan-6-yl)-2,6-dimethylpyridin-3-yl)-2-(tert-butoxy)acetic acid]	< 0.1	0.018
Cc1nc(CN2CCCC2)c(-c2ccc(OCCc3ccc(F)cc3)cc2)c(N2CCC3(CCC3)CC2)c1[C@H](OC(C)(C)C)C(=O)O [Example 44, (S)-2-(tert-Butoxy)-2-(5-(4-(4-fluorophenethoxy)phenyl)-2-methyl-6-(pyrrolidin-1-ylmethyl)-4-(7-azaspiro[3.5]nonan-7-yl)pyridin-3-yl)acetic acid]	< 0.1	
Cc1nc(C)c([C@H](OC(C)(C)C)C(=O)O)c(N2CC[C@H]3CCCC[C@@H]3C2)c1-c1ccc(C(=O)NCc2ccccc2)cc1 [Example 13, (S)-2-(5-(4-(Benzylcarbamoyl)phenyl)-2,6-dimethyl-4-((4aR,8aS)-octahydroisoquinolin-2(1H)-yl)pyridin-3-yl)-2-(tert-butoxy)acetic acid]	< 0.1	
Cc1nc(C)c([C@H](OC(C)(C)C)C(=O)O)c(N2CCCC3(CCCC3)C2)c1-c1ccc(OCCc2ccc(F)cc2)cc1 [Example 18, (S)-2-(tert-Butoxy)-2-(5-(4-(4-fluorophenethoxy)phenyl)-2,6-dimethyl-4-(7-azaspiro[4.5]decan-7-yl)pyridin-3-yl)acetic acid]	0.1 to 1	0.475
Cc1nc(C)c([C@H](OC(C)(C)C)C(=O)O)c(N2CCC3(CCCCC3)CC2)c1-c1ccc(OCCc2ccc(F)cc2)cc1 [Example 60, (S)-2-(tert-Butoxy)-2-(5-(4-(4-fluorophenethoxy)phenyl)-2,6-dimethyl-4-(3-azaspiro[5.5]undecan-3-yl)pyridin-3-yl)acetic acid]	< 0.1	
Cc1nc(C)c([C@H](OC(C)(C)C)C(=O)O)c(N2CCC3(CCCC3)CC2)c1-c1ccc(C(=O)NCc2ccccc2)cc1 [Example 21, (S)-2-(5-(4-(Benzylcarbamoyl)phenyl)-2,6-dimethyl-4-(8-azaspiro[4.5]decan-8-yl)pyridin-3-yl)-2-(tert-butoxy)acetic acid]	< 0.1	
